Reference: ChEMBL document CHEMBL1201862, “PubChem BioAssay data set” (2004)
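Test compounds were applied to cells in 96-well plates for 48 hours at 5 doses. At the GI50, growth is halved.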 Calls of active or inactive are those of the source. No stated cut-off is given here; in the data, active = GI50 up to about 1.1 µM and inactive = higher.

Columns and labels:
Assay in all cases: DTP human tumour cell line panel, 48 h
[1] = tested on: SK-MEL-28
[2] = tested on: UO-31
[3] = tested on: MDA-MB-231
[4] = tested on: SR
[5] = tested on: HCT-116
[6] = tested on: SNB-75
[7] = tested on: MDA-MB-435
[8] = tested on: DU-145
[9] = tested on: SK-MEL-5
[10] = tested on: HCC 2998
[11] = tested on: M14
[12] = tested on: CAKI-1
[13] = tested on: RPMI-8226
[14] = tested on: SK-MEL-2
[15] = tested on: NCI/ADR-RES
[16] = tested on: A498
[17] = tested on: A549
[18] = tested on: OVCAR-4
[19] = tested on: MCF7
[20] = tested on: CCRF-CEM

## O=C(CC(O)(C(F)(F)F)C(F)(F)F)C(c1ccccc1)C(O)(C(F)(F)F)C(F)(F)F (configuration not stated)
[1]
  GI50: 25.4 µM (inactive)
[2]
  GI50: 10.3 µM (inactive)
[3]
  GI50: > 100 µM (inactive)
[4]
  GI50: 9.31 µM (inactive)
[5]
  GI50: 16.4 µM (inactive)
[6]
  GI50: 1.93 µM (inactive)
[7]
  GI50: 47.3 µM (inactive)
[8]
  GI50: 26.1 µM (inactive)
[9]
  GI50: 18.8 µM (inactive)
[10]
  GI50: 9.1 µM (inactive)
[11]
  GI50: 41.2 µM (inactive)
[12]
  GI50: 10.5 µM (inactive)
[13]
  GI50: 5.33 µM (inactive)
[14]
  GI50: 35.1 µM (inactive)
[15]
  GI50: 8.87 µM (inactive)
[16]
  GI50: 13.9 µM (inactive)
[17]
  GI50: 22.2 µM (inactive)
[18]
  GI50: > 100 µM (inactive)
[19]
  GI50: 45.7 µM (inactive)
[20]
  GI50: 5.56 µM (inactive)

## CC(=O)OC(C)(C)[C@H]1O[C@]23O[C@]1(C)C[C@@H](C)[C@@H]2[C@@]1(C)CC[C@@]24C[C@@]25CC[C@H](O[C@@H]2OC[C@@H](O)[C@H](O)[C@H]2O)C(C)(C)[C@@H]5CC[C@H]4[C@]1(C)[C@H]3O
[1]
  GI50: 7.08 µM (inactive)
[2]
  GI50: 14.6 µM (inactive)
[3]
  GI50: 4.61 µM (inactive)
[4]
  GI50: 3.18 µM (inactive)
[5]
  GI50: 6.67 µM (inactive)
[6]
  GI50: 17.1 µM (inactive)
[7]
  GI50: 8.73 µM (inactive)
[8]
  GI50: 4.34 µM (inactive)
[9]
  GI50: 10.3 µM (inactive)
[10]
  GI50: 9.93 µM (inactive)
[11]
  GI50: 8.59 µM (inactive)
[12]
  GI50: 5.47 µM (inactive)
[13]
  GI50: 7.69 µM (inactive)
[14]
  GI50: 18.1 µM (inactive)
[15]
  GI50: 7.73 µM (inactive)
[16]
  GI50: 6.44 µM (inactive)
[17]
  GI50: 6.41 µM (inactive)
[18]
  GI50: 3.95 µM (inactive)
[19]
  GI50: 5.38 µM (inactive)
[20]
  GI50: 5.94 µM (inactive)

## O=[N+]([O-])c1ccc(/N=N/N2CCCC2)cc1
[2]
  GI50: > 100 µM (inactive)
[3]
  GI50: > 100 µM (inactive)
[4]
  GI50: 79.4 µM (inactive)
[5]
  GI50: > 100 µM (inactive)
[6]
  GI50: > 100 µM (inactive)
[7]
  GI50: > 100 µM (inactive)
[8]
  GI50: > 100 µM (inactive)
[9]
  GI50: > 100 µM (inactive)
[10]
  GI50: 4.38 µM (inactive)
[11]
  GI50: > 100 µM (inactive)
[12]
  GI50: > 100 µM (inactive)
[13]
  GI50: > 100 µM (inactive)
[14]
  GI50: > 100 µM (inactive)
[15]
  GI50: > 100 µM (inactive)
[16]
  GI50: > 100 µM (inactive)
[18]
  GI50: > 100 µM (inactive)
[19]
  GI50: > 100 µM (inactive)
[20]
  GI50: > 100 µM (inactive)

## BrC(Br)=C1C(=C(Br)Br)C(Br)C1Br (configuration not stated)
[1]
  GI50: 1.1 µM (active)
[2]
  GI50: 0.701 µM (active)
[3]
  GI50: 1.12 µM (inactive)
[4]
  GI50: 0.043 µM (active)
[5]
  GI50: 0.302 µM (active)
[6]
  GI50: 1.69 µM (inactive)
[7]
  GI50: 0.927 µM (active)
[8]
  GI50: 0.106 µM (active)
[9]
  GI50: 0.826 µM (active)
[10]
  GI50: 0.142 µM (active)
[11]
  GI50: 0.198 µM (active)
[12]
  GI50: 0.132 µM (active)
[13]
  GI50: 0.158 µM (active)
[14]
  GI50: 0.789 µM (active)
[15]
  GI50: 0.733 µM (active)
[16]
  GI50: 1.06 µM (active)
[17]
  GI50: 0.796 µM (active)
[18]
  GI50: 2.51 µM (inactive)
[19]
  GI50: 0.193 µM (active)
[20]
  GI50: 0.0989 µM (active)

## Cc1cccc(/C=N/NC(=S)NC2CCCCC2)n1
[1]
  GI50: 46.7 µM (inactive)
[2]
  GI50: 18.7 µM (inactive)
[3]
  GI50: 35.1 µM (inactive)
[4]
  GI50: 4.76 µM (inactive)
[5]
  GI50: 4.02 µM (inactive)
[6]
  GI50: 45.3 µM (inactive)
[7]
  GI50: 33.7 µM (inactive)
[8]
  GI50: 29.6 µM (inactive)
[9]
  GI50: 29.9 µM (inactive)
[10]
  GI50: 20.7 µM (inactive)
[11]
  GI50: 23 µM (inactive)
[12]
  GI50: 43.3 µM (inactive)
[13]
  GI50: 6.92 µM (inactive)
[14]
  GI50: 24.1 µM (inactive)
[15]
  GI50: 11.9 µM (inactive)
[16]
  GI50: 28.1 µM (inactive)
[17]
  GI50: 28.9 µM (inactive)
[18]
  GI50: 17.3 µM (inactive)
[19]
  GI50: 11.4 µM (inactive)
[20]
  GI50: 1.14 µM (inactive)

## C=CCn1c(=O)ccn(/C(=C/C(=O)OCC)C(=O)OCC)c1=O
[1]
  GI50: 15.2 µM (inactive)
[2]
  GI50: 14.9 µM (inactive)
[3]
  GI50: 9.82 µM (inactive)
[4]
  GI50: 6.4 µM (inactive)
[5]
  GI50: 7.1 µM (inactive)
[6]
  GI50: 16.1 µM (inactive)
[7]
  GI50: 12.8 µM (inactive)
[8]
  GI50: 21.7 µM (inactive)
[9]
  GI50: 15.1 µM (inactive)
[10]
  GI50: 16.5 µM (inactive)
[11]
  GI50: 13.5 µM (inactive)
[12]
  GI50: 1.91 µM (inactive)
[13]
  GI50: 7.94 µM (inactive)
[14]
  GI50: 15.7 µM (inactive)
[15]
  GI50: 21.3 µM (inactive)
[16]
  GI50: 17.9 µM (inactive)
[17]
  GI50: 17.5 µM (inactive)
[18]
  GI50: 12.4 µM (inactive)
[19]
  GI50: 3.94 µM (inactive)
[20]
  GI50: 2.08 µM (inactive)

## CCOC(=O)c1c(N2CCCC2)[nH]c(=O)c(C(c2c(O)c(C(=O)OCC)c(N3CCCC3)[nH]c2=O)C(C)C)c1O
[1]
  GI50: > 100 µM (inactive)
[2]
  GI50: > 100 µM (inactive)
[3]
  GI50: 21.7 µM (inactive)
[4]
  GI50: 37.5 µM (inactive)
[5]
  GI50: > 100 µM (inactive)
[6]
  GI50: 25.3 µM (inactive)
[7]
  GI50: > 100 µM (inactive)
[8]
  GI50: > 100 µM (inactive)
[9]
  GI50: > 100 µM (inactive)
[10]
  GI50: 52.8 µM (inactive)
[11]
  GI50: > 100 µM (inactive)
[12]
  GI50: 48 µM (inactive)
[13]
  GI50: > 100 µM (inactive)
[15]
  GI50: > 100 µM (inactive)
[16]
  GI50: > 100 µM (inactive)
[17]
  GI50: > 100 µM (inactive)
[18]
  GI50: > 100 µM (inactive)
[19]
  GI50: > 100 µM (inactive)
[20]
  GI50: > 100 µM (inactive)
